Counter-ions that a name gives are not always drawn.
Key:
[1] = test system: human DGAT-1; set-up: method as in S-inhibitor catalog; conditions: vendor brief description; ref S-inhibitor catalog; cited from earlier work
[2] = test system: mouse DGAT-1; set-up: method as in S-inhibitor catalog; conditions: vendor brief description; ref S-inhibitor catalog; cited from earlier work
[3] = test system: Toxoplasma gondii RH-2F tachyzoites; experiment: microbe, parasite or virus in culture; conditions: 72 h, read-out: Parasite inhibition (%) mean, preliminary screen of compound library, mean
[4] = test system: ErbB1; set-up: method as in S-inhibitor catalog; conditions: vendor brief description; ref S-inhibitor catalog; cited from earlier work
[5] = test system: ErbB2; set-up: method as in S-inhibitor catalog; conditions: vendor brief description; ref S-inhibitor catalog; cited from earlier work
[6] = test system: ErbB4; set-up: method as in S-inhibitor catalog; conditions: vendor brief description; ref S-inhibitor catalog; cited from earlier work
[7] = target: glycogen phosphorylase (GP); set-up: method as in S-inhibitor catalog; conditions: vendor brief description; ref S-inhibitor catalog; cited from earlier work
[8] = target: APPL (γ-secretase); set-up: method as in S-inhibitor catalog; conditions: vendor brief description; ref S-inhibitor catalog; cited from earlier work
[9] = target: Notch (γ-secretase); set-up: method as in S-inhibitor catalog; conditions: vendor brief description; ref S-inhibitor catalog; cited from earlier work
[10] = target: farnesoid X receptor (FXR); set-up: method as in S-inhibitor catalog; conditions: vendor brief description; ref S-inhibitor catalog; read-out: EC50, FXR agonist; cited from earlier work
[11] = test system: PDGFRα; set-up: method as in S-inhibitor catalog; conditions: in PDGFRα over-expressed CHO cells; vendor brief description; ref S-inhibitor catalog; cited from earlier work
[12] = test system: PI3Kγ; set-up: method as in S-inhibitor catalog; conditions: vendor brief description; ref S-inhibitor catalog; cited from earlier work
[13] = test system: CDK1; set-up: method as in S-inhibitor catalog; conditions: vendor brief description; ref S-inhibitor catalog; cited from earlier work
[14] = test system: CDK4; set-up: method as in S-inhibitor catalog; conditions: vendor brief description; ref S-inhibitor catalog; cited from earlier work
[15] = test system: CDK6; set-up: method as in S-inhibitor catalog; conditions: vendor brief description; ref S-inhibitor catalog; cited from earlier work
[16] = test system: CDK7; set-up: method as in S-inhibitor catalog; conditions: vendor brief description; ref S-inhibitor catalog; cited from earlier work
[17] = test system: fatty acid synthesis; set-up: method as in S-inhibitor catalog; conditions: vendor brief description; ref S-inhibitor catalog; cited from earlier work
[18] = test system: AMPK; conditions: read-out: EC50, AMPK activation; vendor brief description; ref S-inhibitor catalog; cited from earlier work
[19] = in vitro; conditions: human, Host viability (%) mean
[20] = target: opioid receptor-like1 (ORL1) receptor; set-up: method as in S-inhibitor catalog; conditions: vendor brief description; ref S-inhibitor catalog; cited from earlier work
[21] = test system: Aurora A; set-up: method as in S-inhibitor catalog; conditions: vendor brief description; ref S-inhibitor catalog; cited from earlier work
[22] = test system: Aurora B; set-up: method as in S-inhibitor catalog; conditions: vendor brief description; ref S-inhibitor catalog; cited from earlier work
[23] = test system: mutant CETP(C13S); set-up: method as in S-inhibitor catalog; conditions: vendor brief description; ref S-inhibitor catalog; cited from earlier work
[24] = test system: Pol I-driven transcription of rRNA; set-up: method as in S-inhibitor catalog; conditions: in HCT-116 cells; vendor brief description; ref S-inhibitor catalog; cited from earlier work
[25] = target: human c-Met; set-up: method as in S-inhibitor catalog; conditions: vendor brief description; ref S-inhibitor catalog; cited from earlier work
[26] = target: mouse c-Met; set-up: method as in S-inhibitor catalog; conditions: vendor brief description; ref S-inhibitor catalog; cited from earlier work

**Q.** What does the source list for `O=C(Nc1ccccc1)Nc1ccc(-c2ccc(C(=O)[C@@H]3CCC[C@@H]3C(=O)O)cc2)cc1` [A 922500]?
**A.** IC50 [1]: 7 nM; IC50 [2]: 24 nM; inhibition of growth at 5 µM [3]: 2%

**Q.** Which IC50 [4] does the source give for `COc1cc2ncnc(Nc3ccc(F)c(Cl)c3)c2cc1NC(=O)/C=C/CN1CCCCC1` [Dacomitinib (PF299804,PF-00299804)] here?
**A.** […]

**Q.** What about the IC50 [5] of the same molecule?
**A.** […]

**Q.** And the inhibition of growth at 5 µM [3]?
**A.** 0.4%

**Q.** For `CN(C)C(=O)[C@H](O)[C@H](Cc1ccccc1)NC(=O)c1cc2cc(Cl)ccc2[nH]1` [CP-91149], which IC50 [7] is on record?
**A.** 130 nM

**Q.** And the inhibition of growth at 5 µM [3]?
**A.** 28.6%

**Q.** Which IC50 [8] does the source give for `C[C@H](NC(=O)Cc1cc(F)cc(F)c1)C(=O)N[C@@H]1C(=O)N(C)c2ccccc2-c2ccccc21` [YO-01027] here?
**A.** 2.6 nM

**Q.** What about the IC50 [9] of the same molecule?
**A.** 2.9 nM

**Q.** What about the inhibition of growth at 5 µM [3] of the same molecule?
**A.** 1.4%

**Q.** Which results are given for `CC(C)OC(=O)C1=CN(C(=O)c2ccc(F)c(F)c2)CC(C)(C)c2c1[nH]c1ccccc21` [WAY-362450]?
**A.** EC50 [10]: 4 nM; inhibition of growth at 5 µM [3]: -2.1%

**Q.** With `CC1(COc2ccc3c(c2)ncn3-c2ccc3cccc(N4CCC(N)CC4)c3n2)COC1` [Crenolanib (CP-868596)] as the molecule, how does the IC50 [11] read?
**A.** […]

**Q.** What about the inhibition of growth at 5 µM [3] of the same molecule?
**A.** 0.2%

**Q.** Which IC50 [12] does the source give for `O=C1NC(=O)C(=Cc2ccc(-c3ccc(F)cc3)o2)S1` (stereo in doubt) [CAY10505] here?
**A.** 30 nM

**Q.** And the inhibition of growth at 5 µM [3]?
**A.** -7.4%

**Q.** With `CN1CC[C@H](c2c(O)cc(O)c3c(=O)cc(-c4ccccc4Cl)oc23)[C@H](O)C1` [Flavopiridol (Alvocidib) HCl] as the molecule, how does the IC50 [13] read?
**A.** […]

**Q.** What about the IC50 [14] of the same molecule?
**A.** […]

**Q.** What about the IC50 [16] of the same molecule?
**A.** 300 nM

**Q.** What about the inhibition of growth at 5 µM [3] of the same molecule?
**A.** 6.4%

**Q.** With `N#Cc1c(O)c2c(-c3ccc(-c4ccccc4O)cc3)csc2[nH]c1=O` [A-769662] as the molecule, how does the IC50 [17] read?
**A.** 3200 nM

**Q.** What about the inhibition of growth at 5 µM [3] of the same molecule?
**A.** -13.9%

**Q.** With `CCc1ccc(OCc2ccccc2C(=O)Nc2ccc3nc(C)cc(N)c3c2)cc1` [JTC-801] as the molecule, how does the viability at 72 h [19] read?
**A.** 16.4%

**Q.** And the IC50 [20]?
**A.** 94 nM

**Q.** And the inhibition of growth at 5 µM [3]?
**A.** 98.8%

**Q.** Which results are given for `CC(=O)NCC(=O)N1[C@H]2CC[C@H]1c1cc(Nc3ncc(C(F)(F)F)c(NC4CCC4)n3)ccc12` [PF-03814735]?
**A.** viability at 72 h [19]: 60.3%; IC50 [21]: 0.8 nM; IC50 [22]: 5 nM; inhibition of growth at 5 µM [3]: 80.4%

**Q.** What does the source list for `COc1cc(F)c(C(C)C)cc1-c1ccc(C(F)(F)F)cc1CN1C(=O)O[C@H](c2cc(C(F)(F)F)cc(C(F)(F)F)c2)[C@H]1C` [Anacetrapib (MK-0859)]?
**A.** IC50 [23]: 11.8 nM; inhibition of growth at 5 µM [3]: 22.1%

**Q.** For `Cc1cnc(CNC(=O)c2c(=O)c3ccc(N4CCCN(C)CC4)nc3n3c2sc2ccccc23)cn1` [CX-5461], which IC50 [24] is on record?
**A.** 142 nM

**Q.** And the inhibition of growth at 5 µM [3]?
**A.** 2.5%

**Q.** Which viability at 72 h [19] does the source give for `COc1ccc2c(Oc3ccc(NC(=O)c4c(C)n(CC(C)(C)O)n(-c5ccccc5)c4=O)nc3)ccnc2c1` [AMG458] here?
**A.** 75.9%

**Q.** What about the Ki [25] of the same molecule?
**A.** 1.2 nM

**Q.** What about the Ki [26] of the same molecule?
**A.** 2 nM

**Q.** And the inhibition of growth at 5 µM [3]?
**A.** 86.6%
